Key:
[1] = system: Rpb1 peptides; conditions: nuclear extracts from 786-0 VHL(+) cells treated with 25 μM H2O2, collected after 4 h; 37- or 24-amino acid peptides
Description: (§1) The in vitro reactions of synthetic Rpb1 and HIF-1α peptides were performed using nuclear extracts from cells treated with 25 μM H2O2 and collected after 4 h.

[2] = system: HIF-1α peptide; conditions: nuclear extracts from VHL(+) cells treated with 25 μM H2O2, collected after 4 h; 17-amino acid peptide
Description: as §1

[3] = system: Rpb1; conditions: 786-0 VHL(+) cells, 25 μM H2O2, 15 min, nuclease digested extracts
Description: The antibody was used to investigate the role of oxidative stress in P1465 hydroxylation and pVHL-dependent ubiquitylation of Rpb1. […] The experiments were performed using RCC 786-0 cells, a well-characterized model of renal cell cancer, in which native pVHL is absent or stably reconstituted (in legend: 786-0 VHL(−) and VHL(+)). The cells were exposed briefly to a low concentration of H2O2 (25 μM, 15 min) to induce a generic oxidative stress, and assayed at the indicated time points after treatment.

[4] = system: pVHL; test: Immunoblot of crude chromatin fractions after H2O2 treatment; conditions: cells expressing wild type pVHL, 25 μM H2O2, collected 4 h after treatment
Description: In our experiments, we fractionated the pool of Rpb1 engaged on DNA using nuclease digestion and different salt extractions: the nuclear pellet remaining after standard extraction of nuclei with 0.3 M salt was digested with DNAse and micrococcal nuclease, and the digest was then extracted with the indicated concentrations of NaCl (FIG. 3). […] Two other antibodies against Rpb1 were also used: H14, and N20, which is specific for the N-terminal region of Rpb1, independent of its phosphorylation state.

[5] = system: deubiquitylating enzymes, isopeptidase T and ubiquitin C-terminal hydrolase L3; test: Deubiquitylation of Rpb1 in chromatin extract by deubiquitylating enzymes; type: biochemical; conditions: second 0.5 M chromatin fraction of VHL(+) cells
Text: Rpb1 was immunoprecipitated using H14 antibody from the second 0.5 M chromatin fraction, and the immunoprecipitated Rpb1 was immunobloted with BP and anti-ubiquitin antibodies (FIG. 3D). Clearly, the Rpb1 hyperphosphorylated on Ser-5 is also hydroxylated and ubiquitylated in response to oxidative stress and this response depends on the presence of functional pVHL (FIG. 1C). To confirm ubiquitylation of the hydroxylated and hyperphosphorylated Rpb1, the extracts from the second 0.5 M chromatin fraction of VHL(+) cells were incubated with deubiquitylating enzymes, isopeptidase T and ubiquitin C-terminal hydrolase L3. This treatment results in disappearance of the high migrating forms (FIG. 3E. lane 3) which is prevented by ubiquitin aldehyde, an inhibitor of deubiquitylating enzymes (FIG. 3E, lane 4).

Molecule	Rpb1 peptide hydroxylation (capture of [35S]-labeled pVHL) [1]	HIF-1α peptide hydroxylation (capture of [35S]-labeled pVHL) [2]	hydroxylation of Rpb1 [3]	enrichment of pVHL in chromatin extract fractions [4]	disappearance of high migrating (ubiquitylated) forms of Rpb1 [5]
OO [H2O2, hydrogen peroxide]	augmented peptide hydroxylation	not affected	induced persistent (lasting several hours) pVHL-dependent hydroxylation of Rpb1	3.5+/−1.1 fold increase	
ubiquitin aldehyde					prevented
